According to patent US20060063828A1 (priority 2004, published 2006):

What was measured:
VCAM-1 = assay: In Vitro VCAM-1 Assay (ELISA of VCAM-1 on TNF-α stimulated endothelial cells); format: cell-based; details: Endothelial cell; primary human aortic (HAEC) or pulmonary (HPAEC) endothelial cells, TNF-α (1 ng/ml), approximately 16 hours
Protocol: Cell Culture and compound dosing: Cultured primary human aortic (HAEC) or pulmonary (HPAEC) endothelial cells were obtained from Clonetics, Inc., and were used below passage 9. Cells were seeded in 96 well plates such that they would reach 90-95% confluency by the following day. On the following day the cells were stimulated with TNF-α (1 ng/ml) in the presence or absence of compounds dissolved in DMSO such that the final concentration of DMSO is 0.25% or less. To establish a dose curve for each compound, four concentrations in 2- to 5-fold increments were used. Cells were exposed to TNF-α and compounds for approximately 16 hours. The next day the cells were examined under microscope to score for visual signs of toxicity or cell stress.
Following 16 hr exposure to TNF-α and compound the media was discarded and the cells were washed once with Hanks Balanced Salt Solution (HBSS)/Phosphate buffered saline (PBS) (1:1). Primary antibodies against VCAM-1 (0.25 μg/ml in HBSS/PBS+5% FBS) were added and incubated for 30-60 minutes at 37° C. Cells were washed with HBSS/PBS three times, and secondary antibody Horse Radish Peroxidase (HRP)-conjugated goat anti-mouse IgG (1:500 in HBSS/PBS+5% FBS) were added and incubated for 30 minutes at 37° C. Cells were washed with HBSS/PBS four time and TMB substrate were added and incubated at room temperature in the dark until there was adequate development of blue color. The length of time of incubation was typically 5-15 minutes. 2N sulfuric acid was added to stop the color development and the data was collected by reading the absorbance on a BioRad ELISA plate reader at OD 450 nm. The results are expressed as IC50 values (the concentration (micromolar) of compound required to inhibit 50% of the maximal response of the control sample stimulated by TNF-α only).

Balb/C mice = assay: Asthma Protocol (ovalbumin sensitized and challenged mice, bronchoaveolar lavage cell counts); format: in vivo; details: ovalbumin sensitized and aerosol challenged, lavage fluid cell counts
Protocol: Balb/C mice (6-8 weeks old) are sensitized to ovalbumin (ova) (8 ug ova absorbed in 3.3 mg Alum inject) on days 0 and 5. On day 12, the mice were aerosol challenged with 0.5% ovalbumin dissolved in sterile saline for 1 h in the AM, and then again in the PM (at least 4 h apart). On day 14, the mice were anesthetized with ketamine/xylazine/acepromazine cocktail, exsanguinated, and then euthanized. Following blood collection, bronchoaveolar lavage was performed on each animal. Total cell counts were conducted on the lavage fluid. The lavage fluid was processed and slides were made by spinning the samples with a cytospin centrifuge. Slides were airdried and stained using Diff-Quik® stain. Cell differentials of the lavage fluid were completed at the conclusion of the study. Statistical analysis involved ANOVA and Tukey-Kramer post hoc tests. Compounds were administered by subcutaneous injection twice daily from day 11-13. The formulations used contained various mixtures of the following excipients (pharmasolve, cremophor RH 40, tween 80, PEG 300). See Biological Table 3

Male Lewis rats = assay: Rheumatoid Arthritis Protocol (adjuvant-induced paw swelling); format: in vivo; details: M. butyricum adjuvant
Protocol: Male Lewis rats (150-175 g) from Charles River Laboratories were anesthetized on day 0 with 3-5% isoflurane anesthesia while the tail base was shaved and adjuvant mixture was injected. 50 μL of adjuvant (10 mg/ml M. butyricum in mineral oil) was injected subcutaneously into two sites at the tail base. Paw swelling was monitored using a plethysmometer (UGO Basile), after shaving each leg to the level of the Achilles tendon to mark the level of immersion. A baseline paw measurement for both hindpaws was taken between […] a second measurement was taken on day 8. Onset of paw swelling occurred rapidly between days 8-11 and daily measurements were performed every weekday between day 8 and day 14. Compounds of the invention and vehicles were dosed therapeutically (d8-13) after swelling was confirmed. Solutions were injected subcutaneously or given orally by gavage 1-2 times per day. From day 0, rats were weighed on days 0, 8, 11, and 14 and overall health was monitored. Plasma drug levels, if desired, were measured in tail-vein derived blood samples taken on day 13. On day 14, blood samples were obtained by cardiac puncture, rats were euthanized with CO2, selected organs were removed and both hindpaws were amputated and placed in 10% buffered formalin for histopathological analysis. See Biological Table 2.

Row | Compound | IC50 (VCAM-1) | melting point | % Inhibition 6 mg/kg sq, bid, d11-13 (Balb/C mice) | % Inhibition 20 mg/kg sq, bid, d8-13 (Male Lewis rats)
1 | C=C(C(=O)c1ccc(C(=O)O)cc1)c1cc(-c2cccs2)ccc1OC [Example 8, 4-[2-(2-Methoxy-5-thien-2-yl-phenyl)-acryloyl]-benzoic acid] | < 1000 nM |  | 50% | 44%
2 | C=C(C(=O)c1c(OC)ccc(-c2cccs2)c1OC)c1ccc(C(=O)O)cc1 [Example 30, 4-[1-(2,6-Dimethoxy-3-thien-2-yl-benzoyl)-vinyl]-benzoic acid] | < 1000 nM | 193 to 195 °C | 45% | 77%
3 | C=C(C(=O)c1ccc(F)cc1)c1cc(-c2cc3ccccc3s2)c(OC)cc1OC [Example 51, 2-(5-Benzo[b]thien-2-yl-2,4-dimethoxy-phenyl)-1-(4-fluoro-phenyl)-propenone] | < 3000 nM | 142 to 144 °C |  | 
4 | C=C(C(=O)c1ccc(C(=O)O)cc1)c1cc(-c2cccs2)c(OC)cc1OC [Example 55, 4-[2-(2,4-Dimethoxy-5-thien-2-yl-phenyl)-acryloyl]-benzoic acid] | < 3000 nM | 196 to 198 °C |  | 
5 | C=C(C(=O)c1cccc(C(=O)O)c1)c1cc(-c2cccs2)ccc1OC [Example 56, 3-[2-(2-Methoxy-5-thien-2-yl-phenyl)-acryloyl]-benzoic acid] | < 3000 nM | 186 to 188 °C |  | 
6 | C=C(C(=O)c1ccc(C(C)(C)C)cc1)c1cc(-c2cccs2)ccc1OC [Example 57, 1-(4-tert-Butyl-phenyl)-2-(2-methoxy-5-thien-2-yl-phenyl)-propenone] | < 3000 nM | 130 to 132 °C |  | 
7 | C=C(C(=O)c1ccc(C(F)(F)F)cc1)c1cc(-c2cccs2)ccc1OC [Example 58, 2-(2-Methoxy-5-thien-2-yl-phenyl)-1-(4-trifluoromethyl-phenyl)-propenone] | < 3000 nM | 131 to 133 °C |  | 
8 | C=C(C(=O)c1ccc(C(=O)O)cc1)c1cc(-c2cccs2)ccc1OCC(=O)N1CCOCC1 [Example 60] | > 10000 nM | 206 to 207 °C |  | 
9 | C=C(C(=O)c1c(OC)ccc(-c2cccs2)c1OC)c1ccc(S(=O)(=O)N(C)CC(=O)O)cc1 [Example 63, ({4-[1-(2,6-Dimethoxy-3-thien-2-yl-benzoyl)-vinyl]-benzenesulfonyl}-methyl-amino)-acetic acid] | < 10000 nM | 164 to 166 °C |  | 
10 | C=C(C(=O)c1c(OC)ccc(-c2cccs2)c1OC)c1c(F)cccc1C(F)(F)F [Example 64, 1-(2,6-Dimethoxy-3-thien-2-yl-phenyl)-2-(2-fluoro-6-trifluoromethyl-phenyl)-propenone] | > 10000 nM | 76 to 78 °C |  | 
11 | C=C(C(=O)c1c(OC)cccc1OC)c1cc(-c2cccs2)ccc1OC(C)(C)C(=O)O [Example 66, 2-{2-[1-(2,6-Dimethoxy-benzoyl)-vinyl]-4-thien-2-yl-phenoxy}-2-methyl-propionic acid] | < 3000 nM | 72 to 84 °C |  | 

The next lines start with results.

Row | IC50 (VCAM-1) | melting point | Compound | % Inhibition 6 mg/kg sq, bid, d11-13 (Balb/C mice) | % Inhibition 20 mg/kg sq, bid, d8-13 (Male Lewis rats)
12 | < 6000 nM | 56.5 °C (dec.) | C=C(C(=O)c1c(OC)cccc1OC)c1ccc(OC(C)(C)C(=O)O)c(-c2cccs2)c1 [Example 37, 2-{4-[1-(2,6-Dimethoxy-benzoyl)-vinyl]-2-thien-2-yl-phenoxy}-2-methyl-propionic acid] | 27% | 
13 | < 3000 nM | 84 to 87 °C | C=C(C(=O)c1ccc(C(=O)NCCN2CCOCC2)cc1)c1cc(OC)c(OC)c(-c2cccs2)c1 [Example 50, 4-[2-(3,4-Dimethoxy-5-thien-2-yl-phenyl)-acryloyl]-N-(2-morpholin-4-yl-ethyl)-benzamide] |  | 
14 | < 3000 nM | 86 to 88 °C | C=C(C(=O)c1cc(-c2cccs2)ccc1OC)c1ccc(C#N)cc1 [Example 53, 4-[1-(2-Methoxy-5-thien-2-yl-benzoyl)-vinyl]-benzonitrile] |  | 
15 | < 1000 nM | 192 to 194 °C | C=C(C(=O)c1ccc(C(=O)O)cc1)c1cc(-c2ccsc2)ccc1OC [Example 62, 4-[2-(2-Methoxy-5-thien-3-yl-phenyl)-acryloyl]-benzoic acid] |  | 
16 | < 1000 nM | 162 to 163 °C | C=C(C(=O)c1c(OC)cccc1OC)c1cc(-c2cccs2)ccc1OC [Example 65, 1-(2,6-Dimethoxy-phenyl)-2-(2-methoxy-5-thien-2-yl-phenyl)-propenone] |  | 
